Measurements as given in patent US8454582B2, “Methods and devices for the treatment of ocular conditions” (Surmodics, Inc., priority 2004, dated 2013).

Experiments:
[1] = In vivo elution: HPLC detection of TA in tissues after 4-week subretinal PCL/TA implantation; conditions: four weeks after subretinal implant, PCL/TA 60:40, rabbit
[2] = 72 hours after injection; cited from earlier work

| SMILES | TA in the anterior structures (HPLC) [1] | TA in the blood (HPLC) [1] | TA in the posterior tissue samples (HPLC) [1] | triamcinolone present in the vitreous that is associated with other tissues including the retina, pigment epithelium, and sclera [2] |
| --- | --- | --- | --- | --- |
| CC1(C)O[C@@H]2C[C@H]3[C@@H]4CCC5=CC(=O)C=C[C@]5(C)[C@@]4(F)[C@@H](O)C[C@]3(C)[C@]2(C(=O)CO)O1 [TA, Triamcinolone acetonide] | not detected | not detected | confirmed the presence | – |
| C[C@]12C=CC(=O)C=C1CC[C@H]1[C@@H]3C[C@@H](O)[C@](O)(C(=O)CO)[C@@]3(C)C[C@H](O)[C@@]12F [triamcinolone] | – | – | – | less than 1% |
